# In patent publication US6677501B2, “P2X7 receptor-deficient mice and uses thereof” (Pfizer, Inc., priority 2000, dated 2004):
# “And” between values parts separate entries of the source, which are not always exact repeats. Identical values can stand only once.
# How the values were obtained:
# [1] = system: LPS-activated peritoneal macrophages; experiment: LDH release from LPS-activated macrophage cultures; assay type: cell-based, mouse; conditions: 30 min
# Procedure: FIG. 6B is a graphic representation showing the percentage of lactate dehydrogenase (LDH) released from the total culture associated LDH in the samples described in FIG. 6A;
# Macrophages from wild type and P2×7^−/− animals (1×10^6 cells seeded per well of 6-well cluster plates) were stimulated with 1 μg/ml E. coli LPS (Serotype 055 B5 obtained from Sigma; St. Louis, Mo.) for 75-90 minutes and then rinsed with 2 ml of methionine-free RPMI medium containing 100 units/mi penicillin, 100 μg/ml streptomycin, 1% dialyzed FBS, 1 μg/ml LPS, and 25 mM Hepes, pH 7.3 (Pulse Medium). One ml of Pulse Medium containing 83 μCi/Ml of ^35S-methionine (Amersham Corp, Chicago, Ill.) then was added to each well, and the cells were labeled at 37° C. for 1 hour. These labeled cells subsequently were rinsed twice with RPMI 1640 medium containing 100 units/mil penicillin, 100 μg/ml streptomycin, 1% FBS, 2 mM glutamine, 1 μg/ml LPS and 25 mM Hepes, pH 7.3 (Chase Medium). One ml of Chase Medium (containing no effector (control) or containing 05 mM ATP, or 20 mM nigericin) was then added to each well, and the cells were chased at 37° C. for 30 minutes. Media were harvested and clarified by centrifugation (6000×g for 5 minutes) to remove cells and/or cell debris. Cell monolayers were suspended in 1 ml of a lysis buffer composed of 1% Triton X-100, 150 mM NaCl, 25 mM Hepes, pH 7, 0.1 mM PMSF, 1 mg/ml ovalbumin, 1 mM iodoacetic acid, 1 μg/ml pepstatin, and 1 μg/ml leupeptin. Clarified media samples were adjusted to the same final Triton X-100 and protease inhibitor concentrations by addition of aliquots from concentrated stocks of these reagents. […] Immnunoprecipitates were fractionated by SDS gel electrophoresis, the quantity of radioactivity associated with individual IL-1β polypeptide species was determined by scanning dried gels with a Phosphoimager.
# [2] = system: LPS-activated peritoneal macrophages; experiment: Stimulus-induced IL-1β posttranslational processing in vitro; assay type: cell-based, mouse; conditions: 35S-methionine-labeled, 30 min, 5 mM ATP or 20 μM nigericin
# Procedure: Macrophages from wild type and P2×7^−/− animals (1×10^6 cells seeded per well of 6-well cluster plates) were stimulated with 1 μg/ml E. coli LPS (Serotype 055 B5 obtained from Sigma; St. Louis, Mo.) for 75-90 minutes and then rinsed with 2 ml of methionine-free RPMI medium containing 100 units/mi penicillin, 100 μg/ml streptomycin, 1% dialyzed FBS, 1 μg/ml LPS, and 25 mM Hepes, pH 7.3 (Pulse Medium). One ml of Pulse Medium containing 83 μCi/Ml of ^35S-methionine (Amersham Corp, Chicago, Ill.) then was added to each well, and the cells were labeled at 37° C. for 1 hour. These labeled cells subsequently were rinsed twice with RPMI 1640 medium containing 100 units/mil penicillin, 100 μg/ml streptomycin, 1% FBS, 2 mM glutamine, 1 μg/ml LPS and 25 mM Hepes, pH 7.3 (Chase Medium). One ml of Chase Medium (containing no effector (control) or containing 05 mM ATP, or 20 mM nigericin) was then added to each well, and the cells were chased at 37° C. for 30 minutes. Media were harvested and clarified by centrifugation (6000×g for 5 minutes) to remove cells and/or cell debris. Cell monolayers were suspended in 1 ml of a lysis buffer composed of 1% Triton X-100, 150 mM NaCl, 25 mM Hepes, pH 7, 0.1 mM PMSF, 1 mg/ml ovalbumin, 1 mM iodoacetic acid, 1 μg/ml pepstatin, and 1 μg/ml leupeptin. Clarified media samples were adjusted to the same final Triton X-100 and protease inhibitor concentrations by addition of aliquots from concentrated stocks of these reagents. After a 30 minute incubation on ice, all samples were clarified by centrifugation at 45,000 rpm for 30 minutes in a TLA-45 rotor (Beckman, Palo Alto, Calif.), the resulting supernatants were recovered, and IL-1β was immunoprecipitated from these samples using a goat anti-murine IL-1β serum obtained from Dr. Ivan Otterness (Pfizer Central Research, Groton, Conn.). Immnunoprecipitates were fractionated by SDS gel electrophoresis, the quantity of radioactivity associated with individual IL-1β polypeptide species was determined by scanning dried gels with a Phosphoimager.
# P2×7R = conditions: cited from earlier work
# IL-6 = experiment: ATP-induced IL-6 release in LPS-primed mice (peritoneal lavage ELISA); assay type: in vivo, mouse; conditions: for IL-6 (ng/ml), ATP Challenge, P2×7R-/-: LPS-primed P2×7R-/- mice; for IL-6 (ng/ml), ATP Challenge, P2×7R-/- / IL-6 (ng/ml), ATP Challenge, WT: ip ATP, peritoneal lavage; for IL-6 (ng/ml), ATP Challenge, WT: LPS-primed wild-type mice
# Procedure: (§1) ATP-Induced IL-1β Posttranslational Processing In Vivo Groups of mice were injected intraperitoneally (ip) with 1 μg of LPS. Two hours after this LPS injection, mice were injected ip with either 30 mM ATP (adjusted to pH 7) or PBS. Mice were sacrificed 30 minutes or 120 minutes after the ATP or PBS injection and peritoneal cavities were lavaged, each with 3 ml of RPMI (5% FCS). Samples of peritoneal lavages were spun down, supernatants were collected and tested for the presence of IL-1β and IL-6 using ELISAs (Amersham Life Sciences, Arlington Heights, Va. and Endogen, Woburn, Mass., respectively).
# As noted earlier, IL-1 signaling often leads to the production of other cytokines such as IL-6 (Allen et al. (2000) J. Exp. Med. 191:859-869). […] Two hours later an injection of ATP (or PBS) was administered to promote IL-1 posttranslational processing and the mice were incubated for an additional 4 hours. Peritoneal lavages were collected at several times during the course of the experiment and analyzed for IL-6 by ELISA. […] Mice that received an initial priming injection of LPS followed by PBS yielded levels of IL-6 at 1 and 2 hours (4 to 5 ng/ml) that were elevated above those recovered from mice injected with the combination of phosphate buffered saline and ATP (FIG. 8). By 4 hours, however, IL-6 levels recovered from the LPS-PBS treated animals returned to baseline (FIG. 9).
# [3] = system: mouse peritoneal macrophages; experiment: YoPro Yellow uptake by peritoneal macrophages; assay type: cell-based; conditions: 5 mM ATP
# Procedure: Peritoneal macrophages were washed with Isotonic Medium (15 mM Hepes, pH 7.2, 135 mM NaCl, 5 mM KCl, […], […]) by centrifugation and the resulting cell pellet was suspended in Isotonic Medium to achieve a final cell concentration of 1×10^6 cells/ml. Fifty μl of this cell suspension then was placed into wells of a Microfluor “B” U-bottom plate (Dynatech, Chantilly, Va.), and 50 μl of 2 μM YoPro Yellow (Molecular Probes, Eugene, Ore.); the fluorescent dye was dissolved in Isotonic Medium. Wells were then adjusted to 5 mM ATP or 0.0075% saponin by addition of concentrated stock solutions of these agents. Fluorescence was monitored as a function of time at 37° C., excitation, 450 nm/emission, 530 nm.
# IL-1β = experiment: ATP-induced IL-1β posttranslational processing in vivo (peritoneal lavage ELISA); parameters: species or system mouse
# Procedure: as §1
# other P2× receptors = conditions: cited from earlier work
Structure (SMILES),release of lactate dehydrogenase (LDH) ([1]; P2×7R-/- macrophages),release of lactate dehydrogenase (LDH) ([1]; wild-type macrophages),extracellular 17 kDa IL-1β as percentage of total radiolabeled IL-1β recovered ([2]; P2×7R-/- macrophages),extracellular 17 kDa IL-1β as percentage of total radiolabeled IL-1β recovered ([2]; wild-type macrophages) [%],levels of ATP required to achieve activation (P2×7R) [mM],"IL-6 (ng/ml), ATP Challenge, P2×7R-/- (IL-6; 30 min post challenge) [ng/mL]","IL-6 (ng/ml), ATP Challenge, P2×7R-/- (IL-6; 120 min post challenge) [ng/mL]","IL-6 (ng/ml), ATP Challenge, WT (IL-6; 30 min post challenge) [ng/mL]","IL-6 (ng/ml), ATP Challenge, WT (IL-6; 120 min post challenge)","peak lavage fluid IL-6 (IL-6; wild-type mice, LPS at time 0, ATP at 2 hours, 4 hour time point) [ng/mL]","lavage fluid IL-6 (IL-6; wild-type mice, priming injection of PBS followed 2 hours later by ATP)",YoPro Yellow fluorescence intensity ([3]; P2×7R-/- macrophages),YoPro Yellow fluorescence intensity ([3]; wild-type macrophages),"IL-1β in peritoneal lavage after ATP challenge (IL-1β; LPS-primed mice heterozygous (+/-) for the P2×7R disruption, 30 min)","IL-1 (ng/ml), ATP Challenge, WT (IL-1β; LPS-primed wild-type mice, ip ATP, 120 min post challenge, peritoneal lavage)",ATP concentrations at which receptors activate (other P2× receptors) [µM]
CO[C@@H]1C[C@@H](C[C@H]2CC[C@H](C)[C@H]([C@@H](C)C(=O)O)O2)O[C@]2(O[C@](C)([C@H]3CC[C@@](C)([C@@H]4O[C@@H]([C@H]5O[C@@](O)(CO)[C@H](C)C[C@@H]5C)C[C@@H]4C)O3)C[C@H]2C)[C@@H]1C [nigericin],comparable quantities of LDH,comparable quantities of LDH,74%,66,–,–,–,–,–,–,–,–,–,–,–,–
Nc1ncnc2c1ncn2[C@@H]1O[C@H](COP(=O)(O)OP(=O)(O)OP(=O)(O)O)[C@@H](O)[C@H]1O [ATP],–,enhanced release,did not release any radiolabeled IL-1β,64,> 1,9 ± 1,6,8.2 ± 1.7,17 ng/mL and 16.8 ± 2.3 ng/mL,> 25,did not contain significant levels of IL-6 at any time,did not result in time-dependent increase in fluorescence intensity,time dependent increase in fluorescence intensity,A similar pattern,0.34 ng/mL and 0.33 ± 0.08 ng/mL,≤ 100
